Legend:
Type in all cases: in vivo
[1] = test system: barnyardgrass (Echinochloa crus-galli); test: Test G Pre-Emergence Protocol; settings: Echinochloa crus-galli, pre-emergence, 312 h, evaluated after 13 days; for pest or weed control at 15.625 g/ha: 15.625 g ai/ha, read-out: Barnyard grass damage rating (100=total damage to plant; 0=no damage to plant); for pest or weed control at 62.5 g/ha: 62.5 g ai/ha, 100=total damage to plant, 0=no damage to plant, read-out: plant damage rating, Barnyardgrass; for pest or weed control at 250 g/ha: 250 g ai/ha, read-out: Barnyardgrass damage rating (100=total damage to plant; 0=no damage to plant)
Summary of the method: (§1)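 Pots of seeds in standard soil were grown for one day in a glasshouse (24/16 °C day/night, 14 h light, 65% humidity), then sprayed with compound in acetone/water 50:50 with 0.5% Tween 20 at 15.625, 62.5 or 250 g/ha. Damage was scored after 13 days on a 0 (none) to 100 (total) scale.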

corn (Zea mays) [2] = test: Test G Pre-Emergence Protocol; settings: Zea mays, pre-emergence, 312 h, evaluated after 13 days; for plant injury at 15.625 g/ha: 15.625 g ai/ha; for plant injury at 15.625 g/ha / plant injury at 250 g/ha: read-out: Corn damage rating (100=total damage to plant; 0=no damage to plant); for plant injury at 62.5 g/ha: 62.5 g ai/ha, 100=total damage to plant, 0=no damage to plant, read-out: plant damage rating, Corn; for plant injury at 250 g/ha: 250 g ai/ha
Summary of the method: as §1

[3] = test system: giant foxtail (Setaria faberi); test: Test G Pre-Emergence Protocol; settings: Setaria faberi, pre-emergence, 312 h, evaluated after 13 days; for pest or weed control at 15.625 g/ha: 15.625 g ai/ha; for pest or weed control at 15.625 g/ha / pest or weed control at 250 g/ha: read-out: Foxtail, Giant damage rating (100=total damage to plant; 0=no damage to plant); for pest or weed control at 62.5 g/ha: 62.5 g ai/ha, 100=total damage to plant, 0=no damage to plant, read-out: plant damage rating, Foxtail, Giant; for pest or weed control at 250 g/ha: 250 g ai/ha
Summary of the method: as §1

[4] = test system: ivy-leaved morning glory (Ipomoea hederacea); test: Test G Pre-Emergence Protocol; settings: Ipomoea, pre-emergence, 312 h, evaluated after 13 days; for pest or weed control at 15.625 g/ha: 15.625 g ai/ha, read-out: Morning-glory, Ivy-leaved damage rating (100=total damage to plant; 0=no damage to plant); for pest or weed control at 62.5 g/ha: 62.5 g ai/ha, 100=total damage to plant, 0=no damage to plant, read-out: plant damage rating, Morningglory, Ivy-leaved; for pest or weed control at 250 g/ha: 250 g ai/ha, read-out: Morningglory, Ivy-leaved damage rating (100=total damage to plant; 0=no damage to plant)
Summary of the method: as §1

[5] = test system: redroot pigweed (Amaranthus retroflexus); test: Test G Pre-Emergence Protocol; settings: Amaranthus retroflexus, pre-emergence, 312 h, evaluated after 13 days; for pest or weed control at 15.625 g/ha: 15.625 g ai/ha; for pest or weed control at 15.625 g/ha / pest or weed control at 250 g/ha: read-out: Pigweed, Redroot damage rating (100=total damage to plant; 0=no damage to plant); for pest or weed control at 62.5 g/ha: 62.5 g ai/ha, 100=total damage to plant, 0=no damage to plant, read-out: plant damage rating, Pigweed, Redroot; for pest or weed control at 250 g/ha: 250 g ai/ha
Summary of the method: as §1

[6] = test system: velvetleaf (Abutilon theophrasti); test: Test G Pre-Emergence Protocol; settings: Abutilon theophrasti, pre-emergence, 312 h, evaluated after 13 days; for pest or weed control at 15.625 g/ha: 15.625 g ai/ha; for pest or weed control at 15.625 g/ha / pest or weed control at 250 g/ha: read-out: Velvetleaf damage rating (100=total damage to plant; 0=no damage to plant); for pest or weed control at 62.5 g/ha: 62.5 g ai/ha, 100=total damage to plant, 0=no damage to plant, read-out: plant damage rating, Velvetleaf; for pest or weed control at 250 g/ha: 250 g ai/ha
Summary of the method: as §1

[7] = test system: barnyardgrass (Echinochloa crus-galli); test: Test G Post-Emergence Protocol; settings: Echinochloa crus-galli, post-emergence, 312 h; for pest or weed control at 15.625 g/ha: 15.625 g ai/ha, evaluated after 13 days (100=total damage to plant; 0=no damage to plant), read-out: Barnyardgrass damage rating; for pest or weed control at 62.5 g/ha: 62.5 g ai/ha, read-out: Barnyardgrass damage rating (100=total damage to plant; 0=no damage to plant); for pest or weed control at 62.5 g/ha / pest or weed control at 250 g/ha: evaluated after 13 days; for pest or weed control at 250 g/ha: 250 g ai/ha, read-out: damage to plant, Barnyardgrass (100=total damage to plant; 0=no damage to plant)
Summary of the method: (§2)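 Values are percent visual injury at 13 days after treatment (0 none, 100 total). Treatment was a post-emergence spray at 15.625, 62.5 or 250 g/ha on 8-day-old pot plants kept at 24/16 °C.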

corn (Zea mays) [8] = test: Test G Post-Emergence Protocol; settings: Zea mays, post-emergence, 312 h; for plant injury at 15.625 g/ha: 15.625 g ai/ha, evaluated after 13 days (100=total damage to plant; 0=no damage to plant), read-out: Corn damage rating; for plant injury at 62.5 g/ha: 62.5 g ai/ha, read-out: Corn damage rating (100=total damage to plant; 0=no damage to plant); for plant injury at 62.5 g/ha / plant injury at 250 g/ha: evaluated after 13 days; for plant injury at 250 g/ha: 250 g ai/ha, read-out: damage to plant, Corn (100=total damage to plant; 0=no damage to plant)
Summary of the method: as §2

[9] = test system: giant foxtail (Setaria faberi); test: Test G Post-Emergence Protocol; settings: Setaria faberi, post-emergence, 312 h; for pest or weed control at 15.625 g/ha: 15.625 g ai/ha, evaluated after 13 days (100=total damage to plant; 0=no damage to plant), read-out: Foxtail, Giant damage rating; for pest or weed control at 62.5 g/ha: 62.5 g ai/ha, read-out: Foxtail, Giant damage rating (100=total damage to plant; 0=no damage to plant); for pest or weed control at 62.5 g/ha / pest or weed control at 250 g/ha: evaluated after 13 days; for pest or weed control at 250 g/ha: 250 g ai/ha, read-out: damage to plant, Foxtail, Giant (100=total damage to plant; 0=no damage to plant)
Summary of the method: as §2

[10] = test system: ivy-leaved morning glory (Ipomoea hederacea); test: Test G Post-Emergence Protocol; settings: Ipomoea, post-emergence, 312 h; for pest or weed control at 15.625 g/ha: 15.625 g ai/ha, evaluated after 13 days (100=total damage to plant; 0=no damage to plant), read-out: Morningglory, Ivy-leaved damage rating; for pest or weed control at 62.5 g/ha: 62.5 g ai/ha, read-out: Morningglory, Ivy-leaved damage rating (100=total damage to plant; 0=no damage to plant); for pest or weed control at 62.5 g/ha / pest or weed control at 250 g/ha: evaluated after 13 days; for pest or weed control at 250 g/ha: 250 g ai/ha, read-out: damage to plant, Morningglory, Ivy-leaved (100=total damage to plant; 0=no damage to plant)
Summary of the method: as §2

[11] = test system: redroot pigweed (Amaranthus retroflexus); test: Test G Post-Emergence Protocol; settings: Amaranthus retroflexus, post-emergence, 312 h; for pest or weed control at 15.625 g/ha: 15.625 g ai/ha, evaluated after 13 days (100=total damage to plant; 0=no damage to plant), read-out: Pigweed, Redroot damage rating; for pest or weed control at 62.5 g/ha: 62.5 g ai/ha, read-out: Pigweed, Redroot damage rating (100=total damage to plant; 0=no damage to plant); for pest or weed control at 62.5 g/ha / pest or weed control at 250 g/ha: evaluated after 13 days; for pest or weed control at 250 g/ha: 250 g ai/ha, read-out: damage to plant, Pigweed, Redroot (100=total damage to plant; 0=no damage to plant)
Summary of the method: as §2

[12] = test system: velvetleaf (Abutilon theophrasti); test: Test G Post-Emergence Protocol; settings: Abutilon theophrasti, post-emergence, 312 h; for pest or weed control at 15.625 g/ha: 15.625 g ai/ha, evaluated after 13 days (100=total damage to plant; 0=no damage to plant), read-out: Velvetleaf damage rating; for pest or weed control at 62.5 g/ha: 62.5 g ai/ha, read-out: Velvetleaf damage rating (100=total damage to plant; 0=no damage to plant); for pest or weed control at 62.5 g/ha / pest or weed control at 250 g/ha: evaluated after 13 days; for pest or weed control at 250 g/ha: 250 g ai/ha, read-out: damage to plant, Velvetleaf (100=total damage to plant; 0=no damage to plant)
Summary of the method: as §2

CN1C[C@@H](c2ccc(C(F)(F)F)cc2)[C@H](C(=O)Nc2cc(F)nc(F)c2)C1=O (racemic) [Compound 1515]
0%: pest or weed control at 15.625 g/ha [1] | pest or weed control at 62.5 g/ha [1] | pest or weed control at 250 g/ha [1] | plant injury at 15.625 g/ha (corn (Zea mays) [2]) | plant injury at 62.5 g/ha (corn (Zea mays) [2]) | plant injury at 250 g/ha (corn (Zea mays) [2]) | pest or weed control at 15.625 g/ha [3] | pest or weed control at 62.5 g/ha [3] | pest or weed control at 250 g/ha [3] | pest or weed control at 15.625 g/ha [4] | pest or weed control at 62.5 g/ha [4] | pest or weed control at 250 g/ha [4] | pest or weed control at 15.625 g/ha [5] | pest or weed control at 62.5 g/ha [5] | pest or weed control at 250 g/ha [5] | pest or weed control at 15.625 g/ha [6] | pest or weed control at 62.5 g/ha [6] | pest or weed control at 250 g/ha [6] | pest or weed control at 15.625 g/ha [7] | pest or weed control at 62.5 g/ha [7] | pest or weed control at 250 g/ha [7] | plant injury at 15.625 g/ha (corn (Zea mays) [8]) | plant injury at 62.5 g/ha (corn (Zea mays) [8]) | plant injury at 250 g/ha (corn (Zea mays) [8]) | pest or weed control at 15.625 g/ha [9] | pest or weed control at 62.5 g/ha [9] | pest or weed control at 250 g/ha [9] | pest or weed control at 15.625 g/ha [10] | pest or weed control at 62.5 g/ha [10] | pest or weed control at 250 g/ha [10] | pest or weed control at 15.625 g/ha [11] | pest or weed control at 62.5 g/ha [11] | pest or weed control at 250 g/ha [11] | pest or weed control at 15.625 g/ha [12] | pest or weed control at 62.5 g/ha [12] | pest or weed control at 250 g/ha [12]

CN1C[C@@H](c2ccc(C(F)(F)F)cc2)[C@H](C(=O)Nc2ccnnc2)C1=O (racemic) [Compound 1518]
0%: pest or weed control at 15.625 g/ha [1] | pest or weed control at 62.5 g/ha [1] | pest or weed control at 250 g/ha [1] | plant injury at 15.625 g/ha (corn (Zea mays) [2]) | plant injury at 62.5 g/ha (corn (Zea mays) [2]) | plant injury at 250 g/ha (corn (Zea mays) [2]) | pest or weed control at 15.625 g/ha [3] | pest or weed control at 62.5 g/ha [3] | pest or weed control at 250 g/ha [3] | pest or weed control at 15.625 g/ha [4] | pest or weed control at 62.5 g/ha [4] | pest or weed control at 250 g/ha [4] | pest or weed control at 15.625 g/ha [5] | pest or weed control at 62.5 g/ha [5] | pest or weed control at 250 g/ha [5] | pest or weed control at 15.625 g/ha [6] | pest or weed control at 62.5 g/ha [6] | pest or weed control at 250 g/ha [6] | pest or weed control at 15.625 g/ha [7] | pest or weed control at 62.5 g/ha [7] | pest or weed control at 250 g/ha [7] | plant injury at 15.625 g/ha (corn (Zea mays) [8]) | plant injury at 62.5 g/ha (corn (Zea mays) [8]) | plant injury at 250 g/ha (corn (Zea mays) [8]) | pest or weed control at 15.625 g/ha [9] | pest or weed control at 62.5 g/ha [9] | pest or weed control at 250 g/ha [9] | pest or weed control at 15.625 g/ha [10] | pest or weed control at 62.5 g/ha [10] | pest or weed control at 250 g/ha [10] | pest or weed control at 15.625 g/ha [11] | pest or weed control at 62.5 g/ha [11] | pest or weed control at 250 g/ha [11] | pest or weed control at 15.625 g/ha [12] | pest or weed control at 62.5 g/ha [12] | pest or weed control at 250 g/ha [12]

Reference: patent publication US12077503B2, “Substituted cyclic amides and their use as herbicides” (FMC CORPORATION, priority 2015, dated 2024)
